In patent publication US20230148214A1, “INDAZOLES AND AZAINDAZOLES AS LRRK2 INHIBITORS” (ESCAPE Bio, Inc., priority 2020, published 2023):

These compounds were tested against T1, LRRK2 WT (Homo sapiens, UniProt Q5S007) (assay: LRRK2 Kinase Activity Assay (LanthaScreen TR-FRET), wild type). Conditions: recombinant wild type LRRK2, 25 μM ATP, 400 nM LRRKtide, 60 min; class symbols.
T1 construct: purchased Life Technologies PR8604B
Format: biochemical
Experimental: LRRK2 kinase activity was measured using a LanthaScreen™ Kinase Activity Assay from ThermoFisher Scientific. Recombinant wild type or G2019S-LRRK2 protein (Life Technologies, PR8604B or PV4881, respectively), was incubated with a fluorescein-labeled peptide substrate called LRRKtide that is based upon ezrin/radixin/moesin (ERM) (Life Technologies, PV4901) in the presence of ATP and serially diluted compound. […] Compound-dependent inhibition of the TR-FRET signal was used to generate a concentration-response curve for IC50 determination.
After 60 min incubation at room temperature, the reaction was stopped by addition of 10 μL of 2×stop solution containing a final concentration of 2 nM anti-pERM antibody and 10 mM EDTA.

T1 sequence (Q5S007 whole entry): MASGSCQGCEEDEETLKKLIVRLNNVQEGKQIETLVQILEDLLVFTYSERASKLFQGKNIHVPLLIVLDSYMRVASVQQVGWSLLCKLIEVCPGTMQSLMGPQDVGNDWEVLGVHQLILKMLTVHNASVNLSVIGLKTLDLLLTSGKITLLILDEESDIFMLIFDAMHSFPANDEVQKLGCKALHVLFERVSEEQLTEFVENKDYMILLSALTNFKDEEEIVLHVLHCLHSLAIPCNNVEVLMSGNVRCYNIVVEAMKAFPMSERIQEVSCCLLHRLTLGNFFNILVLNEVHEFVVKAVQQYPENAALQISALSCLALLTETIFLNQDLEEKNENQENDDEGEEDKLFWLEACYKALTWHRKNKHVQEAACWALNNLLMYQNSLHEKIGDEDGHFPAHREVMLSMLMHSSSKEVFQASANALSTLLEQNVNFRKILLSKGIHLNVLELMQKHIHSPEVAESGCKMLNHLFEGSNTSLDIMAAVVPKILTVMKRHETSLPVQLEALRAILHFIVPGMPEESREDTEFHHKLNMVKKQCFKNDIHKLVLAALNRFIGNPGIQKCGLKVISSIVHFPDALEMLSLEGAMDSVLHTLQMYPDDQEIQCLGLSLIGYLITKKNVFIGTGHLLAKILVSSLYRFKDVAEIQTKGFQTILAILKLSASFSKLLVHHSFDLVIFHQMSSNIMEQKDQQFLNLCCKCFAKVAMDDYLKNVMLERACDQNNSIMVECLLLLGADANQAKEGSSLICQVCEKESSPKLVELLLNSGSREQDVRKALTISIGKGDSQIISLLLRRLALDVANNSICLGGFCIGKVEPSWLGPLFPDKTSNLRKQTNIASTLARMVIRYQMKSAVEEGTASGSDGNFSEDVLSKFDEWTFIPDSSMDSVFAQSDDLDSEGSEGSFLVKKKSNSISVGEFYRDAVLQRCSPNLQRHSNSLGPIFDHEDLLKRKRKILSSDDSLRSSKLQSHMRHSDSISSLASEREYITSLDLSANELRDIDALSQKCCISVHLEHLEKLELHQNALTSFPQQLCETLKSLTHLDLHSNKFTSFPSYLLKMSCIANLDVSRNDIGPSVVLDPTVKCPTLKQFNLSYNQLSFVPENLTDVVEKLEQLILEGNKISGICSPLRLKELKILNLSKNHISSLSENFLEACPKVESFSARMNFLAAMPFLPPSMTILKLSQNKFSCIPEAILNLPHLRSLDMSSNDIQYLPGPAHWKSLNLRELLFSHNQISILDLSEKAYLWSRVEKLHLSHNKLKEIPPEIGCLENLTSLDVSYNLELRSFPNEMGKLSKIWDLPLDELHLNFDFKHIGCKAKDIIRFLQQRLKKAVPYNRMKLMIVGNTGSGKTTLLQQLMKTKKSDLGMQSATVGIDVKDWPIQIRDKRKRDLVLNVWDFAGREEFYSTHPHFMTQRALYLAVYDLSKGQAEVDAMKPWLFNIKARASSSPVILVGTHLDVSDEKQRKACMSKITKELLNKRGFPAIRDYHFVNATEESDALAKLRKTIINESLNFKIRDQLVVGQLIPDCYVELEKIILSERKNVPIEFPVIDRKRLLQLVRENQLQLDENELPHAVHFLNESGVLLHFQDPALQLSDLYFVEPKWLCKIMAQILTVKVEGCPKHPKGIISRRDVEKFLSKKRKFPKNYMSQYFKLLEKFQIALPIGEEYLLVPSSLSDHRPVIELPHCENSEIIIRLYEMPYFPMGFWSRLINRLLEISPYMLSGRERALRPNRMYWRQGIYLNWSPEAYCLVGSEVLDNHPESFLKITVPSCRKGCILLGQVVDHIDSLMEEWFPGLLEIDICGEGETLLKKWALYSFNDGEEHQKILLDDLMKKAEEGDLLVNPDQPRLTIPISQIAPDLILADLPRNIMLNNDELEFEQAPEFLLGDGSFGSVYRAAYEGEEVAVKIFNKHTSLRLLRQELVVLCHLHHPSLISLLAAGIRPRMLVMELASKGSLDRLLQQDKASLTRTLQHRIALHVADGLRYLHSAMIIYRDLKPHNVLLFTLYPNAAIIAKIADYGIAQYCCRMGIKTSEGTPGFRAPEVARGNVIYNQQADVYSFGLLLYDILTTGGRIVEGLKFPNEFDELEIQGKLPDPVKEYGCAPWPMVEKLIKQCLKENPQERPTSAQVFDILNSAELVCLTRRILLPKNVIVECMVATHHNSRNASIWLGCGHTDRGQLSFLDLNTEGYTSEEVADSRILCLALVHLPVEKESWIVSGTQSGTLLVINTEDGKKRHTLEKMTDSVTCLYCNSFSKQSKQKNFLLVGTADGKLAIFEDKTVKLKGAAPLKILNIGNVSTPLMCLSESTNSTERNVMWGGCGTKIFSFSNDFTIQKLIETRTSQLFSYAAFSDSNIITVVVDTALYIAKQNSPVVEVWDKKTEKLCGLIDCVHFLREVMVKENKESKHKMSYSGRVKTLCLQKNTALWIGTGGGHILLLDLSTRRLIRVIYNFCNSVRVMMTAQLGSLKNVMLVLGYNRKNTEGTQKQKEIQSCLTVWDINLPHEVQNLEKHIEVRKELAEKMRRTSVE

SMILES | IC50
N#Cc1cc2c(nc1Cl)[C@@H](Oc1ccc3[nH]nc(-c4cnco4)c3c1)CCC2 (single isomer, unassigned) [177, enantiomer 2, 2-Chloro-8-((3-(oxazol-5-yl)-1H-indazol-5-yl)oxy)-5,6,7,8-tetrahydroquinoline-3-carbonitrile] | < 100 nM
N#Cc1cc2c(nc1Cl)[C@@H](Oc1ccc3[nH]nc(-c4cnoc4)c3c1)CCC2 (single isomer, unassigned) [178, enantiomer 2, 2-Chloro-8-[[3-(1,2-oxazol-4-yl)-1H-indazol-5-yl]oxy]-5,6,7,8-tetrahydroquinoline-3-carbonitrile] | < 100 nM
N#Cc1cc2c(cc1F)[C@@H](Oc1ccc3[nH]nc(-c4cnco4)c3c1)CCC2 (single isomer, unassigned) [180, enantiomer 2, 3-Fluoro-5-[[3-(1,3-oxazol-5-yl)-1H-indazol-5-yl]oxy]-5,6,7,8-tetrahydronaphthalene-2-carbonitrile] | < 100 nM
N#Cc1cnc2c(n1)CC[C@@H]2Oc1ccc2[nH]nc(-c3cnco3)c2c1 (single isomer, unassigned) [182, enantiomer 2, 5-((3-(Oxazol-5-yl)-1H-indazol-5-yl)oxy)-6,7-dihydro-5H-cyclopenta[b]pyrazine-2-carbonitrile] | < 100 nM
N#Cc1cnc2c(c1)CCC[C@@H]2Oc1ccc2[nH]nc(-c3cnoc3)c2c1 (single isomer, unassigned) [Example 2, enantiomer 2, 8-((3-(Isoxazol-4-yl)-1H-indazol-5-yl)oxy)-5,6,7,8-tetrahydroquinoline-3-carbonitrile] | < 100 nM
N#Cc1ccc2c(c1)CCC2Oc1ccc2[nH]nc(-c3cnco3)c2c1 (single isomer, unassigned) [Example 3, enantiomer 2, 1-((3-(Oxazol-5-yl)-1H-indazol-5-yl)oxy)-2,3-dihydro-1H-indene-5-carbonitrile] | < 100 nM
N#Cc1ccc2c(c1)CC[C@@H]2Oc1ccc2[nH]nc(-c3cnn(C(F)F)c3)c2c1 (single isomer, unassigned) [Example 4, enantiomer 2, 1-((3-(1-(Difluoromethyl)-1H-pyrazol-4-yl)-1H-indazol-5-yl)oxy)-2,3-dihydro-1H-indene-5-carbonitrile] | < 100 nM
N#Cc1ccc2c(c1)CC[C@@H]2Oc1ccc2[nH]nc(-c3cnoc3)c2c1 (single isomer, unassigned) [Example 5, enantiomer 2, 1-((3-(Isoxazol-4-yl)-1H-indazol-5-yl)oxy)-2,3-dihydro-1H-indene-5-carbonitrile] | < 100 nM
N#Cc1ccc2c(c1)CC[C@@H]2Nc1ccc2[nH]nc(-c3cnoc3)c2c1 (single isomer, unassigned) [Example 8, enantiomer 2, 1-((3-(Isoxazol-4-yl)-1H-indazol-5-yl)amino)-2,3-dihydro-1H-indene-5-carbonitrile] | < 100 nM
N#Cc1ccc2c(c1)CC[C@@H]2Nc1ccc2[nH]nc(-c3cnco3)c2c1 (single isomer, unassigned) [Example 9, enantiomer 2, 1-((3-(Oxazol-5-yl)-1H-indazol-5-yl)amino)-2,3-dihydro-1H-indene-5-carbonitrile] | < 100 nM
N#Cc1ccc2c(c1)CC[C@@H]2Nc1ccc2[nH]nc(-c3ccoc3)c2c1 (single isomer, unassigned) [Example 11, enantiomer 2, 1-((3-(Furan-3-yl)-1H-indazol-5-yl)amino)-2,3-dihydro-1H-indene-5-carbonitrile] | < 100 nM
N#Cc1ccc2c(c1)CC[C@@H]2Nc1ccc2[nH]nc(-c3cnn(C(F)F)c3)c2c1 (single isomer, unassigned) [Example 12, enantiomer 2, 1-((3-(1-(Difluoromethyl)-1H-pyrazol-4-yl)-1H-indazol-5-yl)amino)-2,3-dihydro-1H-indene-5-carbonitrile] | < 100 nM
Cc1cc(C#N)cc2c1[C@@H](Oc1ccc3[nH]nc(-c4cnco4)c3c1)CC2 (single isomer, unassigned) [Example 14, enantiomer 2, 7-Methyl-1-((3-(oxazol-5-yl)-1H-indazol-5-yl)oxy)-2,3-dihydro-1H-indene-5-carbonitrile] | < 100 nM
N#Cc1cnc2c(c1)CCC[C@@H]2Oc1ccc2[nH]nc(-c3cnco3)c2c1 (single isomer, unassigned) [Example 16, enantiomer 2, 8-((3-(Oxazol-5-yl)-1H-indazol-5-yl)oxy)-5,6,7,8-tetrahydroquinoline-3-carbonitrile] | < 100 nM
N#Cc1ccc2c(c1)CCC[C@@H]2Oc1ccc2[nH]nc(-c3cnco3)c2c1 (single isomer, unassigned) [Example 18, enantiomer 2, 5-((3-(Oxazol-5-yl)-1H-indazol-5-yl)oxy)-5,6,7,8-tetrahydronaphthalene-2-carbonitrile] | < 100 nM
Cc1c(C#N)ccc2c1CC[C@@H]2Oc1ccc2[nH]nc(-c3cnco3)c2c1 (single isomer, unassigned) [Example 22, enantiomer 2, 4-Methyl-1-((3-(oxazol-5-yl)-1H-indazol-5-yl)oxy)-2,3-dihydro-1H-indene-5-carbonitrile] | < 100 nM
N#Cc1cc2c(cc1F)[C@@H](Oc1ccc3[nH]nc(-c4cnco4)c3c1)CC2 (single isomer, unassigned) [Example 23, enantiomer 2, 6-Fluoro-1-((3-(oxazol-5-yl)-1H-indazol-5-yl)oxy)-2,3-dihydro-1H-indene-5-carbonitrile] | < 100 nM
N#Cc1ccc2c(c1F)CC[C@@H]2Oc1ccc2[nH]nc(-c3cnco3)c2c1 (single isomer, unassigned) [Example 24, enantiomer 2, 4-Fluoro-1-((3-(oxazol-5-yl)-1H-indazol-5-yl)oxy)-2,3-dihydro-1H-indene-5-carbonitrile] | < 100 nM
N#Cc1cc2c(cc1F)[C@@H](Nc1ccc3[nH]nc(-c4cnco4)c3c1)CC2 (single isomer, unassigned) [Example 25, enantiomer 2, 6-Fluoro-1-((3-(oxazol-5-yl)-1H-indazol-5-yl)amino)-2,3-dihydro-1H-indene-5-carbonitrile] | < 100 nM
N#Cc1ccc2c(c1F)CC[C@@H]2Nc1ccc2[nH]nc(-c3cnco3)c2c1 (single isomer, unassigned) [Example 26, enantiomer 2, 4-Fluoro-1-((3-(oxazol-5-yl)-1H-indazol-5-yl)amino)-2,3-dihydro-1H-indene-5-carbonitrile] | < 100 nM
Cc1c(C#N)ccc2c1CC[C@@H]2Nc1ccc2[nH]nc(-c3cnco3)c2c1 (single isomer, unassigned) [Example 27, enantiomer 2, 4-methyl-1-((3-(oxazol-5-yl)-1H-indazol-5-yl)amino)-2,3-dihydro-1H-indene-5-carbonitrile] | < 100 nM
Cc1cc2c(cc1C#N)CC[C@@H]2Nc1ccc2[nH]nc(-c3cnco3)c2c1 (single isomer, unassigned) [Example 28, enantiomer 2, 6-Methyl-1-((3-(oxazol-5-yl)-1H-indazol-5-yl)amino)-2,3-dihydro-1H-indene-5-carbonitrile] | < 100 nM
Cc1cc2c(cc1C#N)CC[C@H]2Oc1ccc2[nH]nc(-c3cnco3)c2c1 (single isomer, unassigned) [Example 29, enantiomer 2, 6-Methyl-1-((3-(oxazol-5-yl)-1H-indazol-5-yl)oxy)-2,3-dihydro-1H-indene-5-carbonitrile] | < 100 nM
N#Cc1cccc2c1[C@@H](Oc1ccc3[nH]nc(-c4cnco4)c3c1)CC2 (single isomer, unassigned) [Example 37, enantiomer 2, 3-((3-(Oxazol-5-yl)-1H-indazol-5-yl)oxy)-2,3-dihydro-1H-indene-4-carbonitrile] | < 100 nM
N#Cc1ccc2c(c1)CCC[C@@H]2Oc1ccc2[nH]nc(-c3ccnc(N4CCOCC4)c3)c2c1 (single isomer, unassigned) [Example 39, enantiomer 2, 5-((3-(2-Morpholinopyridin-4-yl)-1H-indazol-5-yl)oxy)-5,6,7,8-tetrahydronaphthalene-2-carbonitrile] | < 100 nM
COc1cc(-c2n[nH]c3ccc(N[C@H]4CCc5cc(C#N)ccc54)cc23)ccn1 (single isomer, unassigned) [Example 40, enantiomer 2, 1-((3-(2-Methoxypyridin-4-yl)-1H-indazol-5-yl)amino)-2,3-dihydro-1H-indene-5-carbonitrile] | < 100 nM
N#Cc1cc2c(nn1)[C@@H](Oc1ccc3[nH]nc(-c4cnco4)c3c1)CC2 (single isomer, unassigned) [Example 41, enantiomer 2, 7-((3-(Oxazol-5-yl)-1H-indazol-5-yl)oxy)-6,7-dihydro-5H-cyclopenta[c]pyridazine-3-carbonitrile] | < 100 nM
N#Cc1ccc2c(c1)CC(F)(F)[C@@H]2Nc1ccc2[nH]nc(-c3cnco3)c2c1 (single isomer, unassigned) [Example 42, enantiomer 2, 2,2-Difluoro-1-((3-(oxazol-5-yl)-1H-indazol-5-yl)amino)-2,3-dihydro-1H-indene-5-carbonitrile] | < 100 nM
N#Cc1cnc2c(c1)C1CC1[C@@H]2Nc1ccc2[nH]nc(-c3cnco3)c2c1 (single isomer, unassigned) [Example 48, enantiomer 2, 6-((3-(Oxazol-5-yl)-1H-indazol-5-yl)amino)-4b,5,5a,6-tetrahydrocyclopropa[3,4]cyclopenta[1,2-b]pyridine-3-carbonitrile] | < 100 nM
N#Cc1ccc2c(c1F)CC[C@@H]2Oc1ccc2[nH]nc(-c3cnn(C(F)F)c3)c2c1 (single isomer, unassigned) [Example 51, enantiomer 2, 1-((3-(1-(Difluoromethyl)-1H-pyrazol-4-yl)-1H-indazol-5-yl)oxy)-4-fluoro-2,3-dihydro-1H-indene-5-carbonitrile] | < 100 nM
